Laboratory results as given in patent US20230095199A1, “DIMETHYL SULFOXIDE (DMSO) FORMULATIONS FOR TREATING AUTISM” (Abela Pharmaceuticals, Inc., priority 2010, published 2023).
Entries after “also recorded” stand apart in the source; their conditions may differ.

Tested on: patient, diagnosed with an autism spectrum disorder
Experiment: Case treatment of a patient with autism spectrum disorder with oral MSM and/or DMSO
Type: in vivo
Description: A patient, diagnosed with an autism spectrum disorder, was treated with a combination of MSM and DMSO, beginning. […] In some embodiments, combination of MSM and DMSO unexpectedly improve one or more symptoms associated with autism, as compared to administration of MSM or DMSO individually. In several embodiments, in addition to the beneficial therapeutic effects, the combination of MSM and DMSO reduces one or more of the side effects typically associated with DMSO administration (e.g., odor, gastrointestinal distress). In some embodiments, these unexpected effects are the result of the continued (e.g., daily) administration of MSM/DMSO, while in other embodiments, these effects are long-term (e.g., persist beyond the period of continued administration of MSM/DMSO). Moreover, in certain embodiments, combinations of MSM and DMSO result in synergistic therapeutic effects for one or more of the symptoms of autism. In some embodiments, these synergistic effects are the result of the continued (e.g., daily) administration of MSM/DMSO, while in other embodiments, these effects are long-term (e.g., persist beyond the period of continued administration of MSM/DMSO).
The patient's symptoms include stimming, nighttime stimming, hyperactive gag reflex, impaired social interaction, a lack of vocalization and communication, delayed success with toilet training, and constipation. DMSO/MSM treatment was initiated for patient. The patient was treated with 4.7 grams of oral MSM solution daily (4½ teaspoons daily of a 15% solution). […] The patient was also treated with 4.7 grams of MSM and 0.025 grams of DMSO in an oral solution (4½ teaspoons daily of 15% MSM and 0.1% DMSO).
The patient was also treated with two short term bolus treatments with increased amounts of DMSO. In addition to the 4.7 g of MSM and 0.025 g of DMSO in an oral solution, the patient received an additional 4.8 g/day of DMSO for a short duration of 10 days (1 teaspoon, 90% oral solution). […] The patient's chronic constipation was also eliminated during these treatment cycles of higher doses of DMSO.
The patient was further treated with an oral formulation comprising 4.7 g of MSM and […] of DMSO. Improvements in communication, social interaction, and constipation continued at this dosage.

[1] = additional 4.8 g/day DMSO (90% oral solution) for 10 days on top of 4.7 g MSM and 0.025 g DMSO
[2] = after one month of 4.7 g MSM daily

SMILES	ability to vocalize [1]	chronic constipation [1]	different words vocalized during a session (larger dose of DMSO for 10 days in addition to normal treatment)	frequency of nightly stimming (4.7 g MSM daily (15% solution))	time until improvement of stimming was noted (4.7 g MSM daily (15% solution)) [weeks]	reduction of daytime stimming (4.7 g oral MSM daily (15% solution))	incidents of hyperactive gag reflex (4.7 g oral MSM daily (15% solution), within 12 weeks)	reduction of stimming (especially night-time stimming) (4.7 g oral MSM daily (15% solution, 4½ teaspoons), within 12 weeks)	signs known [2]	time engaged in an activity [2] [min]	vocalization [2]
C[S+](C)[O-] [DMSO, Dimethyl sulfoxide]	improved dramatically	eliminated; also recorded: vastly improved	six	–	–	–	–	–	–	–	–
CS(C)(=O)=O [MSM, Methylsulfonylmethane]	–	–	–	reduced from every night to once every two or three weeks	≤ 12	about 80%	reduced from multiple times per day to only a few times per month	about 90%	gained an additional sign	8 to 10	became more vocal
